Five compounds from patent EP2332528A1, “Substituted aromatic dicarbonic acid amides as medicaments” (Grünenthal GmbH, priority 2009, dated 2011) can be followed below.

By IC50 is commonly meant the midpoint of a concentration-inhibition curve.

The test system of this test is vGLUT1- bzw. vGLUT2-Transporter. The test is described as follows: Glutamate uptake in rat crude synaptic vesicles ([3H]-glutamate uptake). It counts as biochemical, Ratte. Particulars: for IC50: read-out: VGLUT (Ratte), IC50; for VGLUT (Ratte), Hemmung [%]: test concentration not given. The text has this:
I. Funktionelle Untersuchung an den vGLUT1- bzw. vGLUT2-Transportern
Die agonistische bzw. antagonistische Wirkung der zu untersuchenden Verbindungen am vGLUT1- bzw. vGLUT2-Transporter der Spezies Ratte kann mit folgendem Assay bestimmt werden.
Glutamat-Uptake in Rattenvesikel ('rat crude synaptic vesicles')
Die Präparation von Vesikeln wurde aus Rattengehirn-Homogenaten (männlichen Ratten, Stamm Wistar SPF, 150-250 g Gewicht) durchgeführt gemäß Roseth et al. (1995) J. Neurochem. 65: 96-103, der sich auf Whittaker et al. (1964) Biochem J. 90, 293-303 und Fykse und Fonnum (1988) J. Neurochem. 50: 1237-1242 bezieht.
Hierzu wurden frisch entnommene Rattengehirne in 0,32 M Saccharose, 10 mM TRIS-maleat, 1 mM EGTA, pH 7,4 (10 ml/g Frischgewicht) mit einem Potter-Homogenisator (Fa. Braun/Melsungen; 5 Kolbenhübe bei 800 Upm) unter Eiskühlung homogenisiert und anschließend für 10 Minuten bei 3.000 g und 4°C zentrifugiert. Der resultierende Überstand wurde bei 20.000 g für 30 Minuten bei 4°C zentrifugiert. Das entstandene Pellet wurde dann im Verhältnis 1:3 mit 10 mM TRIS-maleate, 0,1 mM EGTA, pH 7,4 osmotisch geschockt und die Suspension bei 17000g für 30 min (4°C) zentrifugiert. Die im Überstand verbliebenen Vesikel wurden nun auf einen Dichtegradienten aus 0,6 M Saccharose in 10 mM TRIS-maleat, 1 mM EGTA, pH 7.4 und 0.4 M Saccharose in 10 mM TRIS-maleat, 1 mM EGTA, pH 7.4 geschichtet. Eine Ultrazentrifugation der Gradienten im Ausschwingrotor bei 65000g für 2h (4°C) schloss sich an. Die Vesikel-Fraktion wurde von der 0.4 M Saccharose-Bande isoliert und im Uptake-Versuch eingesetzt.
Die Substratlösung für den Uptake von [^3H]-Glutamat bestand aus ATP (neutralisiert mit Trisma base; 2 mM im Endansatz), Glutamat (0.5 mM im Endansatz) und ^3H-Glutamat (0.5 µCi im Endansatz). In 14 ml-Reagiergefäßen (Sarstedt, Artikel-Nr.: 798438) wurden jeweils 0,3 ml Gesamtvolumina (n=2/Probe) pipettiert in der folgenden Reihenfolge: 1.) 165 µl Inkubationspuffer (110 mM Kaliumtartrat, 10 mM TRIS-maleat, pH 7,4, 4 mM MgCl2), 2.) 10 µl Testsubstanz oder Vehikelkontrolle oder blank, 3.) 100 µl synaptische Vesikel. Es schloss sich eine Vorinkubation von 15 min bei 30°C an (nur blank-Ansätze befanden sich hierbei auf Eis). Danach wurde der Uptake durch Zugabe von 25 µl der oben beschriebenen Substratlösung gestartet. Die Reaktion wurde nach 5 min durch Zugabe von 7,0 ml eiskalter 150 mM KCI gestoppt. Anschließend wurden die Proben mit Hilfe des Brandel Cell Harvesters Typ M-24R über einen Membranfilter der Porengröße 0,8 µm abgesaugt und zweimal mit eiskalter 150 mM KCI nachgewaschen. Die Messung erfolgte am beta-Counter nach 15 h in 10 ml Szintillatorflüssigkeit (Filter Count).
Die Affinität der Verbindungen der allgemeinen Formel (I) für den vGLUT1- bzw. vGLUT2-Transporter wurde wie vorstehend beschrieben bestimmt (Pharmakologische Methoden).

Turning to `O=C(Nc1ccccc1C(=O)O)c1cccc(C(=O)Nc2ccccc2C(=O)O)c1` [Beispiel 2, 2-(3-(2-Carboxyphenylcarbamoyl)benzamido)benzoesäure], the IC50 was determined as 3350 nM and the “VGLUT (Ratte), Hemmung [%]” value turned out to be 78%.

In the case of `O=C(Nc1ccccc1C(=O)O)c1ccc(Oc2ccc(C(=O)Nc3ccccc3C(=O)O)cc2)cc1` [Beispiel 3, 2-(4-(4-(2-Carboxyphenylcarbamoyl)phenoxy)benzamido)-benzoesäure], the IC50 is 2260 nM and the “VGLUT (Ratte), Hemmung [%]” value is recorded as 88%.

In the case of `O=C(Nc1ccccc1C(=O)O)c1ccc(C(=O)Nc2ccccc2C(=O)O)cc1` [Beispiel 1, 2-(4-(2-Carboxyphenylcarbamoyl)benzamido)benzoesäure], the concentration for half-maximal inhibition (IC50) came out at 1290 nM and the “VGLUT (Ratte), Hemmung [%]” value is given as 91%.

For the compound `O=C(Nc1cc([N+](=O)[O-])ccc1C(=O)O)c1ccc(C(=O)Nc2cc([N+](=O)[O-])ccc2C(=O)O)cc1` [Beispiel 5, 2-(4-(2-Carboxy-5-nitrophenylcarbamoyl)benzamido)-4-nitrobenzoesäure], the half-maximal inhibitory concentration (IC50) is 860 nM and the “VGLUT (Ratte), Hemmung [%]” value stood at 88%.

Turning to `O=C(Nc1cc([N+](=O)[O-])ccc1C(=O)O)c1cccc(C(=O)Nc2cc([N+](=O)[O-])ccc2C(=O)O)c1` [Beispiel 4, 2-(3-(2-Carboxy-5-nitrophenylcarbamoyl)benzamido)-4-nitrobenzoesäure], the concentration for half-maximal inhibition (IC50) stood at 320 nM and the “VGLUT (Ratte), Hemmung [%]” value came to 92%.
